# Assay results as given in US20110312974A1, “HETEROARYL ANTAGONISTS OF PROSTAGLANDIN D2 RECEPTORS” (AMIRA PHARMACEUTICALS, INC., priority 2008, published 2011).
# Molecular target: T1, human DP2 receptor (Homo sapiens, UniProt Q9Y5Y4)
# T1 construct: expressed in transfected cells; membrane preparation
# T1 sequence (Q9Y5Y4 1-395): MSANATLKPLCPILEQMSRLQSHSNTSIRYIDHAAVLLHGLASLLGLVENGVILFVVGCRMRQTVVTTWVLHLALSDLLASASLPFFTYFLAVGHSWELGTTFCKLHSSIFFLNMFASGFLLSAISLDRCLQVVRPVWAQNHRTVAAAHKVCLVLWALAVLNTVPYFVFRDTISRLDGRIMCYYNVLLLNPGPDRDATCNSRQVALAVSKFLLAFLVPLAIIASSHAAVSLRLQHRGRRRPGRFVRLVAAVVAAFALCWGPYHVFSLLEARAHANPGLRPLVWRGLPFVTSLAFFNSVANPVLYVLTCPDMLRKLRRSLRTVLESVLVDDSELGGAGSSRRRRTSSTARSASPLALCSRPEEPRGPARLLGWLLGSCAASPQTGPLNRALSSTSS
# Test: DP2/CRTH2 radioligand binding assay using [3H]PGD2
# Settings: hDP2 (CRTH2) binding assay; membranes of HEK293 cells expressing recombinant human DP2, 1 nM [3H]PGD2
# Experimental: The ability of a compound to bind to the human DP2 receptor is assessed via a radioligand binding assay using [^3H]PGD2. HEK293 cells stably expressing recombinant human DP2 are resuspended in 10 mM Hepes, 7.4 containing 1 mM DTT, lysed and centrifuged at 75,000×g to pellet the membranes. The membranes are resuspended in 10 mM Hepes, 7.4 containing 1 mM DTT and 10% glycerol to approximately 5 mg protein/ml. Membranes (2-10 μg protein/well) are incubated in 96-well plates with 1 nM [^3H]PGD2 and test compound in Assay Buffer (50 mM Hepes, 10 mM MnCl2, 1 mM EDTA, plus or minus 0.2% human serum albumin, pH 7.4) for 60 minutes at room temperature. The reactions are terminated by rapid filtration through Whatman GF/C glass fibre filter plates. The filter plates were pre-soaked in 0.33% polythylenimine for 30 minutes at room temperature then washed in Wash Buffer (50 mM Hepes, 0.5 M NaCl pH 7.4) prior to harvesting. After harvesting, the filter plates are washed 3 times with 1 ml cold Wash Buffer then dried. Scintillant is then added to the plates and the radioactivity retained on the filters is determined on a Packard TopCount (Perkin Elmer). Specific binding is determined as total radioactive binding minus non-specific binding in the presence of 10 μM PGD2. IC50s were determined using GraphPad prism analysis of drug titration curves.
row,SMILES,IC50
1,"CCN(Cc1cc(C(F)(F)F)ccc1-c1cc(CC(=O)O)ccn1)C(=O)C1CC1 [Compound 1-35, (2-{2-[(N-Cyclopropanecarbonyl-N-ethyl-amino)-methyl]-4-trifluoromethyl-phenyl}-pyridin-4-yl)-acetic acid]",> 1000 nM
2,"CCN(Cc1cc(C(F)(F)F)ccc1-c1cc(CC(=O)O)cnc1-c1ccccc1)C(=O)C1CC1 [Compound 1-76, (5-{2-[(N-Cyclopropanecarbonyl-N-ethyl-amino)-methyl]-4-trifluoromethyl-phenyl}-6-phenyl-pyridin-3-yl)-acetic acid]",> 1000 nM
3,"CCNCc1cc(C(F)(F)F)ccc1-c1cncc(CC(=O)O)c1 [Compound 1-78, [5-(2-Ethylaminomethyl-4-trifluoromethyl-phenyl)-pyridin-3-yl]-acetic acid]",> 1000 nM
4,"CCN(Cc1cc(C(F)(F)F)ccc1-c1c(C)nn(CC(=O)O)c1C)C(=O)C1CC1 [Compound 3-2, (4-{2-[(N-Cyclopropanecarbonyl-N-ethyl-amino)-methyl]-4-trifluoromethyl-phenyl}-3,5-dimethyl-pyrazol-1-yl)-acetic acid]",> 1000 nM
5,"CS(=O)(=O)NCc1ccc(-c2cncc(CC(=O)O)c2)c(CN(Cc2ccccc2)C(=O)C2CC2)c1 [Compound 1-10, {5-[2-[(N-Benzyl-N-cyclopropanecarbonyl-amino)-methyl]-4-(methanesulfonylamino-methyl)-phenyl]-pyridin-3-yl}-acetic acid]",> 1000 nM
6,"O=C(O)Cc1cncc(-c2ccc(C(F)(F)F)cc2CN(CCc2ccccn2)C(=O)C2CC2)c1 [Compound 1-64, [5-(2-{[N-Cyclopropanecarbonyl-N-(2-pyridin-2-yl-ethyl)-amino]-methyl}-4-trifluoromethyl-phenyl)-pyridin-3-yl]-acetic acid]",> 1000 nM
7,"CCN(Cc1cc(C(F)(F)F)ccc1-c1cc(CC(=O)O)ccn1)C(=O)NCc1ccccc1 [Compound 1-34, {2-[2-(3-Benzyl-1-ethyl-ureidomethyl)-4-trifluoromethyl-phenyl]-pyridin-4-yl}-acetic acid]",> 1000 nM
8,"CCN(Cc1cc(C(F)(F)F)ccc1-c1cc(CC(=O)O)ccn1)C(=O)c1ccccc1 [Compound 1-37, (2-{2-[(N-Benzoyl-N-ethyl-amino)-methyl]-4-trifluoromethyl-phenyl}-pyridin-4-yl)-acetic acid]",> 1000 nM
9,"CCN(Cc1cc(F)ccc1-c1cncc(C(C)C(=O)O)c1)C(=O)OCc1ccccc1 (stereo not shown) [Compound 1-11, 2-(5-{2-[(N-Benzyloxycarbonyl-N-ethyl-amino)-methyl]-4fluoro-phenyl}-pyridin-3-yl)-propionic acid]",< 300 nM
10,"COCC(=O)N(Cc1cnc(C)cn1)Cc1cc(C(F)(F)F)ccc1-c1cncc(CC(=O)O)c1 [Compound 1-60, [5-(2-{[N-(2-Methoxy-acetyl)-N-(5-methyl-pyrazin-2-ylmethyl)-amino]-methyl}-4-trifluoromethyl-phenyl)-pyridin-3-yl]-acetic acid]",300 to 1000 nM
11,"O=C(O)Cc1cncc(-c2ccc(C(F)(F)F)cc2CN(CCc2cccnc2)C(=O)C2CC2)c1 [Compound 1-65, [5-(2-{[N-Cyclopropanecarbonyl-N-(2-pyridin-3-yl-ethyl)-amino]-methyl}-4-trifluoromethyl-phenyl)-pyridin-3-yl]-acetic acid]",300 to 1000 nM
12,"CC(=O)NCc1ccc(-c2cncc(CC(=O)O)c2)c(CN(Cc2ccccc2)C(=O)C2CC2)c1 [Compound 1-9, (5-{4-(Acetylamino-methyl)-2-[(N-benzyl-N-cyclopropanecarbonyl-amino)-methyl]-phenyl}-pyridin-3-yl)-acetic acid]",> 1000 nM
13,"CCN(Cc1cc(C(F)(F)F)ccc1-c1cnn(CC(=O)O)c1)C(=O)C1CC1 [Compound 3-1, (4-{2-[(N-Cyclopropanecarbonyl-N-ethyl-amino)-methyl]-4-trifluoromethyl-phenyl}-pyrazol-1-yl)-acetic acid]",< 300 nM
14,"CCN(Cc1cc(C(F)(F)F)ccc1-c1cc(CC(=O)O)ccn1)C(=O)C1CCC1 [Compound 1-36, (2-{2-[(N-Cyclobutanecarbonyl-N-ethyl-amino)-methyl]-4-trifluoromethyl-phenyl}-pyridin-4-yl)-acetic acid]",> 1000 nM
15,"O=C(O)Cc1cncc(-c2ccc(C(F)(F)F)cc2CN(CCc2ccncc2)C(=O)C2CC2)c1 [Compound 1-66, [5-(2-{[N-Cyclopropanecarbonyl-N-(2-pyridin-4-yl-ethyl)-amino]-methyl}-4-trifluoromethyl-phenyl)-pyridin-3-yl]-acetic acid]",> 1000 nM
16,"CCN(Cc1cc(C(F)(F)F)ccc1-c1cc(CC(=O)O)cnc1OCc1ccccc1)C(=O)C1CC1 [Compound 1-68, (6-Benzyloxy-5-{2-[(N-cyclopropanecarbonyl-N-ethyl-amino)-methyl]-4-trifluoromethyl-phenyl}-pyridin-3-yl)-acetic acid]",< 300 nM
17,"O=C(O)Cc1cncc(-c2ccc(C(=O)N3CCCC3)cc2CN(Cc2ccccc2)C(=O)C2CC2)c1 [Compound 1-8, {5-[2-[(N-Benzyl-N-cyclopropanecarbonyl-amino)-methyl]-4-(pyrrolidine-1-carbonyl)-phenyl]-pyridin-3-yl}-acetic acid]",300 to 1000 nM
18,"CC(=O)N(Cc1ccc(C(F)(F)F)nc1)Cc1cc(C(F)(F)F)ccc1-c1cncc(CC(=O)O)c1 [Compound 1-62, [5-(2-{[N-Acetyl-N-(6-trifluoromethyl-pyridin-3-ylmethyl)-amino]-methyl}-4-trifluoromethyl-phenyl)-pyridin-3-yl]-acetic acid]",< 300 nM
19,"CCN(Cc1cc(C(F)(F)F)ccc1-c1cccc(CC(=O)O)n1)C(=O)NCc1ccccc1 [Compound 1-39, {6-[2-(3-Benzyl-1-ethyl-ureidomethyl)-4-trifluoromethyl-phenyl]-pyridin-2-yl}-acetic acid]",> 1000 nM

# The next lines start with the values.
row,IC50,SMILES
1,< 300 nM,"O=C(O)Cc1cncc(-c2ccc(C(F)(F)F)cc2CN(C(=O)C2CC2)C2Cc3ccccc3C2)c1 [Compound 1-24, (5-{2-[(N-Cyclopropanecarbonyl-N-indan-2-yl-amino)-methyl]-4-trifluoromethyl-phenyl}-pyridin-3-yl)-acetic acid]"
2,< 300 nM,"CCN(Cc1cc(C(F)(F)F)ccc1-c1cc(C(F)(F)F)cc(CC(=O)O)n1)C(=O)C1CCC1 [Compound 1-41, (6-{2-[(N-Cyclobutanecarbonyl-N-ethyl-amino)-methyl]-4-trifluoromethyl-phenyl}-4-trifluoromethyl-pyridin-2-yl)-acetic acid]"
3,< 300 nM,"CCN(Cc1cc(C(F)(F)F)ccc1-c1cc(CC(=O)O)cnc1OCC1CC1)C(=O)C1CC1 [Compound 1-69, (5-{2-[(N-Cyclopropanecarbonyl-N-ethyl-amino)-methyl]-4-trifluoromethyl-phenyl}-6-cyclopropylmethoxy-pyridin-3-yl)-acetic acid]"
4,< 300 nM,"CCN(Cc1cc(-n2cccn2)ccc1-c1cc(CC(=O)O)cnc1OC)C(=O)C1CC1 [Compound 1-46, (5-{2-[(N-Cyclopropanecarbonyl-N-ethyl-amino)-methyl]-4-pyrazol-1-yl-phenyl}-6-methoxy-pyridin-3-yl)-acetic acid]"
5,< 300 nM,"CC(=O)N(Cc1cnc(C)cn1)Cc1cc(C(F)(F)F)ccc1-c1cncc(CC(=O)O)c1 [Compound 1-61, [5-(2-{[N-Acetyl-N-(5-methyl-pyrazin-2-ylmethyl)-amino]-methyl}-4-trifluoromethyl-phenyl)-pyridin-3-yl]-acetic acid]"
6,< 300 nM,"CC(=O)N(CCc1ccccc1)Cc1cc(C(F)(F)F)ccc1-c1cncc(CC(=O)O)c1 [Compound 1-27, (5-{2-[(N-Acetyl-N-phenethyl-amino)-methyl]-4-trifluoromethyl-phenyl}-pyridin-3-yl)-acetic acid]"
7,< 300 nM,"O=C(O)Cc1cncc(-c2ccc(C(F)(F)F)cc2CN(Cc2ccccn2)C(=O)C2CC2)c1 [Compound 1-52, (5-{2-[(N-Cyclopropanecarbonyl-N-pyridin-2-ylmethyl-amino)-methyl]-4-trifluoromethyl-phenyl}-pyridin-3-yl)-acetic acid]"
8,< 300 nM,"O=C(O)Cc1cncc(-c2ccc(C(F)(F)F)cc2CN(CCc2ccccc2)C(=O)C2CC2)c1 [Compound 1-26, (5-{2-[(N-Cyclopropanecarbonyl-N-phenethyl-amino)-methyl]-4-trifluoromethyl-phenyl}-pyridin-3-yl)-acetic acid]"
9,< 300 nM,"CCN(Cc1cc(C(F)(F)F)ccc1-c1cc(C(F)(F)F)cc(CC(=O)O)n1)C(=O)NCc1ccccc1 [Compound 1-42, {6-[2-(3-Benzyl-1-ethyl-ureidomethyl)-4-trifluoromethyl-phenyl]-4-trifluoromethyl-pyridin-2-yl}-acetic acid]"
